Measured values taken from article PMC11173677, “Identification and Evaluation of Olive Phenolics in the Context of Amine Oxidase Enzyme Inhibition and Depression: In Silico Modelling and In Vitro Validation” (Molecules, 2024).
Values belong to the molecule of their own block, whether it stands above or below them.

Legend:
LSD1 [1] = test system: T1, LSD1; experiment: LSD1 activity in nuclear extracts of BJ cells stimulated with DEX; assay type: cell-based, human; details: DEX 50 μM 72 h, then TCP 5 μM or OLP, HT, HTA 50 μM for 48 h
T1 construct: nuclear proteins extracted from the BJ cultures were directly assayed for LSD1 activity; endogenous in cells; host or cells: BJ human foreskin fibroblasts (nuclear extract, DEX-stimulated)
Procedure: Histone demethylase LSD1 activity assay
4µL of nuclear extracts containing 5µg protein was added to designated strip wells with stably
captured LSD1 substrate (H3K4me2), followed by an additional 26µL of H3K4me2 (HG3)
substrate diluted in assay buffer (HG2). In no enzyme control wells, the 4µL of nuclear
extracts was replaced with 4µL of assay buffer. Blank wells contained 30µL of assay buffer.
A standard curve was generated by adding 1µL of standard (HG4) at incrementally increasing
concentrations (0.1-10ng/µL) to 29µL of assay buffer in designated standard wells. After all
wells were loaded appropriately, the assay plate was incubated away from light at room
temperature for 60 minutes. Following incubation, contents were aspirated and wells were
washed three times with 150µL of wash buffer (HG1). 50µL of capture antibody (HG5)
diluted at a 1:1000 ratio was then added to all wells before incubating at room temperature
for 60 minutes on a rotating platform. Well contents were then aspirated and washed four
times with 150µL of wash buffer. 50µL of detection antibody (HG6) diluted at a 1:1000 ration
was then added to each well. Assay plate was then incubated for a final time at room
temperature for 30 minutes. Well contents were aspirated again, followed by six washes with
150µL wash buffer. 50µL of fluoro-developer (HG7) was then added into each well and
allowed to develop away from light for 1-5 minutes. Fluorescence was then read on a
CLARIOstar Microplate Reader (BMG Labtech, Ortenberg Germany) at Ex/Em =

MAO-A [2] = test system: T2, MAO-A; experiment: MAO-A activity assay in hESC-derived neurons stimulated with ATRA; assay type: cell-based, human; details: 1 μM ATRA 24 h, then TCP 5 μM, OLC 50 μM or OLP 50 μM for 24 h
T2 construct: endogenous in cells; host or cells: BJ human foreskin fibroblasts stimulated with DEX or HC
Procedure: (§1) An in vitro model of MDD was designed for stem cell-derived neuronal cells through incubation of 1 μM all-trans retinoic acid (Sigma-Aldrich PHR1187, St. Louis, MO, USA). All cell treatments were conducted in duplicate and replicated using independently differentiating neuronal plates.
(§2) Activity assays were commercially sourced from BioVision (Abcam, BioVision ab241031, Waltham, MA, USA) and were performed according to manufacturer’s instructions. The treatment groups were plated in duplicate on a black, flat 96-well microplate. The cells were homogenised in assay buffer using a microtube mixer at 4 °C and centrifuged at 10,000× g for 10 min. A Bradford assay was performed to determine the total protein concentration within each cell pellet (200 μg/well for BJ cells, 40 μg/well for hESC-derived neurons). Approximately 40 μL of supernatant was loaded into wells along with 10 μL of either […], or assay buffer for total MAO activity. A H2O2 standard was pipetted as supplied and 50 μL of reaction mix was pipetted into all wells. Using a CLARIOstar Plus Microplate Reader, (BMG Labtech, Ortenberg, Germany), fluorescence was measured kinetically at 25 °C for 60 min with Ex/Em = 535/587 nm.

MAO-B [3] = test system: T3, MAO-B; experiment: MAO-B activity assay in hESC-derived neurons stimulated with ATRA; assay type: cell-based, human; details: 1 μM ATRA 24 h, then TCP 5 μM, OLC 50 μM or OLP 50 μM for 24 h
T3 construct: endogenous in cells; host or cells: BJ human foreskin fibroblasts stimulated with DEX or HC
Procedure: as §1, §2

total MAO = experiment: Total MAO activity assay in hESC-derived neurons stimulated with ATRA; assay type: cell-based, human; details: 1 μM ATRA 24 h, then TCP 5 μM, OLC 50 μM or OLP 50 μM for 24 h
Procedure: as §1, §2

MAO-A [4] = target: MAO-A; design: method as in PMID 17915852; details: read-out: inhibition constant, MAO-A; cited from earlier work
MAO-B [5] = target: MAO-B; design: method as in PMID 17915852; details: read-out: inhibition constant, MAO-B; cited from earlier work
purified LSD1 = purified LSD1 (Homo sapiens, UniProt O60341); experiment: LSD1 direct screening assay (Epigentek inhibitory screening kit); assay type: biochemical; details: direct incubation with purified LSD1, Epigentek kit; read-out: IC50, inhibition of LSD1
Procedure: Fluorescence was measured using a CLARIOstar Plus Microplate Reader (BMG Labtech, Ortenberg, Germany) at excitation and emission wavelengths of 530 nm and 590 nm, respectively (Ex/Em = 530/590 nm).

LSD1 [6] = target: T4, LSD1 (Homo sapiens, UniProt O60341); experiment: LSD1 fluorescence coupling enzyme assay (Reaction Biology Corporation); assay type: biochemical; details: Reaction Biology Corp., 30 min pre-incubation, 10 μM histone H3(1-21)K4me2 peptide substrate; read-out: IC50, LSD1 demethylase activity
T4 construct: Reaction Biology Corporation (performed the assay)
Procedure: The inhibitory activity of HCl 489479, OLC, and OLP was measured using a fluorescence coupling enzyme assay (performed by Reaction Biology Corporation). […] All compounds were pre-incubated for 30 min with the enzyme before the addition of 10 μM histone H3(1-21)K4me2 peptide substrate to start the reaction. Fluorescence was measured using an EnVision Multimode Plate Reader at Ex/Em = 535/590.

purified MAO-A = target: T5, purified MAO-A (Homo sapiens, UniProt P21397); experiment: MAO-A direct screening assay (inhibitor screening kit); assay type: biochemical; details: purified enzyme; read-out: IC50, inhibition of MAO-A
T5 construct: purchased Sigma-Aldrich MAK295
T5 sequence (P21397 1-527): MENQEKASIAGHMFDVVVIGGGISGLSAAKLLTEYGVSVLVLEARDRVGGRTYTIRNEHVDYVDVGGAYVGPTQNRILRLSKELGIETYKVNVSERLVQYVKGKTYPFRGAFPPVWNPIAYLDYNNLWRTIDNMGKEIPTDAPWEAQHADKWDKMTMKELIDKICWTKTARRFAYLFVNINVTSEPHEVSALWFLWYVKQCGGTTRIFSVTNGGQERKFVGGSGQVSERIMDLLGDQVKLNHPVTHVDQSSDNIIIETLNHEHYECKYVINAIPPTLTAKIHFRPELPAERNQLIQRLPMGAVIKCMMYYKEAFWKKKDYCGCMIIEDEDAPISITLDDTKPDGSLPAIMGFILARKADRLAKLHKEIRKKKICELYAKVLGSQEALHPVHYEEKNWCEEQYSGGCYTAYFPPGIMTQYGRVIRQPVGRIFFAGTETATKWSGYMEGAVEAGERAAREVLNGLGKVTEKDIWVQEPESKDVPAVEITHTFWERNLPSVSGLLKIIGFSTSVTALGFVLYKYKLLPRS
Procedure: (§3) The assays were conducted for MAO-A and MAO-B according to the manufacturer’s instructions.

H3K4 mono-methylation = H3K4 mono-methylation in BJ cells (Western blotting); assay type: cell-based, human; details: 50 μM, 48 h, compared to untreated cells; effects more pronounced with DEX
Procedure: As described in the Supplementary Information, nuclear proteins extracted from the BJ cultures were directly assayed for LSD1 activity (Epigentek P-3076, Farmingdale, NY, USA). Fluorescence was read on a CLARIOstar Microplate Reader (BMG Labtech, Ortenberg, Germany) at Ex/Em = 530/590 nm (Figure S4). Histone proteins were extracted from the treated cultures and were analysed through Western blotting. The mono-methylation status of lysine on histone 3 (H3K4) was determined via immunodetection (Table S6).
100µL of Nuclear Extraction Buffer containing 0.2µL 1M DTT and 0.4µL PIC was then added to the remaining nuclei-containing pellets. Full resuspension was achieved through multiple rounds of vigorous vortexing and ice incubations (to maintain protein integrity). Once the entire pellet was visibly resuspended in NEB, tubes were centrifuged at 16,000g for 10 minutes. The resulting supernatant containing the nuclear extract fraction was transferred to clean 0.5mL tubes and stored at -80°C.
Acid extraction of histone proteins
Cells were washed in 10mL of pre-chilled PBS (1X) and detached from flask surface via mechanical disruption using a cell scraper. Cell solution was then transferred into a 15mL tube and centrifuged at 150g for 10 minutes. Supernatant was then discarded and the remaining cell pellet resuspended in 0.5mL PBS (1X) and transferred into a 1.5mL microcentrifuge tube. Cells were then centrifuged at 9400g for 20 seconds, after which the supernatant was removed and discarded. The remaining pellet was then briefly resuspended in 600µL of acid extraction lysis buffer (10mM KCl, 10mM HEPES, […]) containing cOmplete™ Mini Protease Inhibitor Cocktail (Sigma-Aldrich, Roche 11836153001, MO USA) and 0.3µL 1M DTT. This will cause cells to pre-swell, resulting in a reduced amount of PBS (1X) remaining in the microcentrifuge tube that may deter maximal cell lysis capacity. Cells were then centrifuged at 9400g for 20 seconds with the resultant supernatant aspirated and discarded. […]

human skin fibroblasts = test system: human skin fibroblasts; design: method as in PMID 37432217; details: in comparison to untreated controls, at certain doses; cited from earlier work
purified MAO-B = target: T6, purified MAO-B (Homo sapiens, UniProt P27338); experiment: MAO-B direct screening assay (inhibitor screening kit); assay type: biochemical; details: purified enzyme; read-out: IC50, inhibition of MAO-B
T6 construct: purchased Sigma-Aldrich MAK296
T6 sequence (P27338 1-520): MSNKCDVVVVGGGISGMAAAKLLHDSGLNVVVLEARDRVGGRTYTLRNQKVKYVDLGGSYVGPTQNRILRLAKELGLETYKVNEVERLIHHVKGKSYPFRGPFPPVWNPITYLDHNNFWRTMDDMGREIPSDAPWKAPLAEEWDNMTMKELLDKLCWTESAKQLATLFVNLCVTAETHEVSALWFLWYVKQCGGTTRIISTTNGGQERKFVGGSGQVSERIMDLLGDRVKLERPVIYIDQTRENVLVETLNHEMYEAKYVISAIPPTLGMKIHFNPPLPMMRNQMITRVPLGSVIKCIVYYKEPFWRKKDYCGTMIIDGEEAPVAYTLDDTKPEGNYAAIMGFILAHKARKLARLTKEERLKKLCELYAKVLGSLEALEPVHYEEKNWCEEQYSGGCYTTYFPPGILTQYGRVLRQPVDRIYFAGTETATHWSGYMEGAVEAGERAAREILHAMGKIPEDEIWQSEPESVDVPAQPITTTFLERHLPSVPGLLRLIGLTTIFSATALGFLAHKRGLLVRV
Procedure: as §3

MAO-A [7] = test system: MAO-A; design: method as in PMID 30809547; details: cited from earlier work
MAO-B [8] = test system: MAO-B; design: method as in PMID 30809547; details: cited from earlier work

Molecule: N[C@@H]1C[C@H]1c1ccccc1 (racemic) [TCP, tranylcypromine, reference compound]
LSD1 activity in BJ cultures stimulated with DEX (LSD1 [1]): significant reduction | MAO-A activity in hESC-derived neurons (MAO-A [2]): significantly reduced | MAO-B activity in hESC-derived neurons (MAO-B [3]): significantly reduced | total MAO activity in hESC-derived neurons (total MAO): significantly reduced

Molecule: CNCc1cc(=O)oc2cc(OCc3cccc(Cl)c3)ccc12 [7-(3-chlorobenzyloxy)-4-(methylamino)methyl-coumarin]
Ki (MAO-A [4]): 15700 nM | Ki (MAO-B [5]): 100 nM

Molecule: O=Cc1cc(=O)oc2cc(OCc3cccc(Cl)c3)ccc12 [7-(3-chlorobenzyloxy)-4-carboxaldehyde-coumarin]
Ki (MAO-A [4]): 11000 nM | Ki (MAO-B [5]): 400 nM

IC50 (purified LSD1): 39 nM | IC50 (LSD1 [6]): 570 nM | IC50 (purified MAO-A): 430 nM
Molecule: OCCc1ccc(O)c(O)c1 [HT, hydroxytyrosol]
LSD1 activity in BJ cultures stimulated with DEX (LSD1 [1]): significant reduction | baseline levels of H3K4 mono-methylation in BJ cells (H3K4 mono-methylation): increased | growth capacity of human skin fibroblasts (human skin fibroblasts): significantly increased

IC50 (purified LSD1): 1100 nM | IC50 (LSD1 [6]): 31 nM | IC50 (purified MAO-A): 700 nM | IC50 (purified MAO-B): 91400 nM
Molecule: CC(=O)OCCc1ccc(O)c(O)c1 [HTA, hydroxytyrosol acetate]
LSD1 activity in BJ cultures stimulated with DEX (LSD1 [1]): significant reduction | baseline levels of H3K4 mono-methylation in BJ cells (H3K4 mono-methylation): increased

Molecule: COc1cc(/C=C/c2ccc(O)cc2)cc(OC)c1 [pterostilbene]
IC50 (MAO-A [7]): 13400 nM | IC50 (MAO-B [8]): 138 nM

Molecule: Oc1ccc(/C=C/c2cc(O)cc(O)c2)cc1 [resveratrol]
IC50 (MAO-A [7]): 313 nM | IC50 (MAO-B [8]): 15800 nM

Molecule: isoeugenol
IC50 (MAO-B [8]): 102000 nM
